Format in all cases: cell-based
The test system of one test is KAS-6/1. The test is described as follows: IC50 of multiple myeloma drugs alone and with IC20 SNS01-T, KAS-6/1. The following applies: for fold less IC50 with IC20 SNS01-T: KAS-6/1, with versus without IC20 SNS01-T.
Another test relates to U266. The test is described as follows: IC50 of multiple myeloma drugs alone and with IC20 SNS01-T, U266. As to conditions: for IC50: Homo sapiens, U-266; for fold less IC50 with IC20 SNS01-T: U266, with versus without IC20 SNS01-T.
The next test has as its system RPMI-8226. Kind of test: IC50 of multiple myeloma drugs alone and with IC20 SNS01-T, RPMI-8226. The following applies: for IC50: Homo sapiens; for fold less IC50 with IC20 SNS01-T: RPMI-8226, with versus without IC20 SNS01-T.
[1] abbreviates: KAS-6/1, drug alone, read-out: IC50.
Where [2] appears, read: KAS-6/1, with IC20 SNS01-T, read-out: IC50 with IC20 SNS01-T.
Setting [3] is: U266, drug alone, read-out: IC50.
Setting [4] is: U266, with IC20 SNS01-T, read-out: IC50 with IC20 SNS01-T.
The mark [5] stands for this setting: RPMI-8226, drug alone, read-out: IC50.
[6] abbreviates: RPMI-8226, with IC20 SNS01-T, read-out: IC50 with IC20 SNS01-T.

Read-outs that look alike come from different tables or passages of the source.

One may read the IC50 as the concentration needed to halve the response being measured. Consider `CC(C)C[C@H](NC(=O)[C@H](Cc1ccccc1)NC(=O)c1cnccn1)B(O)O` [Bortezomib, bortezomib], for which the IC50 in the test on KAS-6/1 (setting [1]) stood at 7.31 nM; in the test with KAS-6/1 (setting [2]), 2.64 nM; in the test with U266 (setting [3]), 2.86 nM; in the test on U266 (setting [4]), 0.83 nM; in the test with RPMI-8226 (setting [5]), 2.12 nM; in the test with RPMI-8226 (setting [6]), 1.51 nM. Besides, the “fold less IC50 with IC20 SNS01-T” value was approximately 2.8 × in the test on KAS-6/1, approximately 3.4 × in the test with U266 and approximately 1.4 × in the test with RPMI-8226.
Take `Nc1cccc2c1CN(C1CCC(=O)NC1=O)C2=O` (stereo not drawn) [Lenalidomide, lenalidomide]: the IC50 amounted to 69800 nM with KAS-6/1 (setting [1]); 2370 nM in the test on KAS-6/1 (setting [2]); 62000 nM with U266 (setting [3]); 1420 nM in the test with U266 (setting [4]); 84900 nM in the test with RPMI-8226 (setting [5]); 3280 nM in the test on RPMI-8226 (setting [6]). For the same molecule, the “fold less IC50 with IC20 SNS01-T” value is recorded as approximately 29 × in the test with KAS-6/1, approximately 43.7 × in the test on U266 and 25.9 × in the test with RPMI-8226.

The values are drawn from patent publication US20140314704A1, “Treatment of B Cell Lymphomas” (Senesco Technologies, Inc., priority 2011, published 2014).
